# Laboratory results published in patent EP0782854A2, “Use of isopropyl-2-(1,3-dithietan-2-ylidene)-2-(N-(4-methylthiazol-2-yl)carbamoyl)acetate as a cancer chemopreventive agent” (Yuhan Corporation, priority 1995, dated 1997).
# Assays:
# [1] = system: Salmonella typhimurium TA100; experiment: Ames His+ reversion assay, mutagenesis induced by BPDE; format: cell-based; settings: 25nmol BPDE; for No. of His+ revertant/plate: control (0 µg) 706
# Protocol: (§1) The Ames His+ reversion assay was performed in accordance with the liquid preincubation method using Salmonella typhimurium TA100 as a test strain[see D.M. Maton and B. N. Ames, Mutation Res., 113, pp. 173-221(1983)].
# (§2) 25nmol of BPDE was incubated with S. typhimurium TA100 in the absence or presence of a given amount of isopropyl 2-(1,3-dithietan-2-ylidene)-2-[N-(4-methylthiazol-2-yl)carbamoyl]acetate at 37 °C for 20 minutes.
# (§3) Then, the mixture was diluted with soft agar, poured onto hard agar plates, and incubated for another 48 hours to allow the development of His+ revertant colonies. The data are expressed as average of values from duplicate analysis.
# [2] = system: Salmonella typhimurium TA100 and TA1535; experiment: Ames His+ reversion assay, mutagenesis induced by VC (Figure 1); format: cell-based; settings: vinyl carbamate 10µmol; compound 2.5µg and 25µg; values only in Figure 1
# Protocol: (§4) Male Sprague-Dawley rats (40 to 45 day old) were fed with a standard laboratory pellet diet and water ad libitum under standard conditions(12h light-12h dark cycle, temp.: 21±2°C). They were treated intraperitoneally with Aroclor 1254 (500mg/kg in corn oil) for 5 consecutive days prior to sacrifice. Rats were killed by CO2 asphyxiation, and their livers were immediately removed and perfused in situ with ice-cooled isotonic KCl solution. The liver tissue was weighed, minced, and homogenized in 3-fold volumes of ice-cooled 0.25M sucrose solution by employing a motorized Potter-Elvehjem glass-Teflon homogenizer. The homogenates were centrifuged at 9,000 X g for 30 minutes and the supernatant(S9 fraction) was used as the source of enzymes.
# (§5) The Ames His+ reversion assay was performed in accordance with the liquid preincubation method using Salmonella typhimurium TA98 and TA100 as test strains[see D.M. Maton and B. N. Ames, Mutation Res., 113, pp. 173-221(1983)].
# […] Various amounts of isopropyl 2-(1,3-dithietan-2-ylidene)-2-[N-(4-methylthiazol-2-yl)carbamoyl]acetate were added thereto, and preincubated at 37°C for 20 minutes.
# The mixture was then diluted with soft agar, poured onto hard agar plates, and incubated for another 48 hours to allow the development of His+ revertant colonies. The data were corrected for the numbers of spontaneous revertant. […]
# [3] = system: Salmonella typhimurium TA100; experiment: Ames His+ reversion assay, mutagenesis induced by VC epoxide; format: cell-based
# Protocol: as §1, §2, §3
# The procedure of Test Example 1-2 was repeated except that Salmonella typhimurium TA100 was used as a test strain and vinyl carbamate epoxide(25 and 50nmol) was used as mutagens.
# mouse skin tumor [4] = experiment: Mouse skin tumor test, carcinogenesis induced by VC (topical initiation, TPA promotion); format: in vivo, female ICR mice; settings: VC 5.8 µmol topical, pretreatment 2.5µmol compound or 8µmol diallyl sulfide
# Protocol: (§6) Inhibitory effect of isopropyl 2-(1,3-dithietan-2-ylidene)-2-[N-(4-methylthiazol-2-yl)carbamoyl]acetate on mouse skin tumor was also investigated.
# The dorsal region of female ICR mice (6- to 7-week old) was shaved. Groups of 30 mice were administered with 2.5µmol isopropyl 2-(1,3-dithietan-2-ylidene)-2-[N-(4-methylthiazol-2-yl)carbamoyl]acetate in 0.2% sodium carboxymethyl cellulose or 8µmol of diallyl sulfide in 0.1M sterilized potassium phosphate buffer. After 10 minutes, the mice were administered topically with VC(5.8 µmol) in 0.2ml acetone containing 15% DMSO. Control group was administered with VC alone.
# One week after the initiation, the mice were administered topically with 15nmol TPA(12-O-tetradecanoyl phorbol-13-acetate)in 0.1 ml acetone twice a week to promote carcinogenic process.
# Tumors of at least 1 mm in diameter were counted and recorded every other week. The results are shown in Table V. Numbers in parentheses indicate the % of tumor bearing mice.
# mouse skin tumor [5] = experiment: Mouse skin tumor test, carcinogenesis induced by B[a]P or VC (gavage pretreatment, TPA promotion); format: in vivo, female CD-1 mice; settings: 16 weeks, diallyl sulfide 0.2mg/10µl/g body wt.
# Protocol: as §6
# trioctanoin, or isopropyl 2-(1,3-dithietan-2-ylidene)-2-[N-(4-methylthiazol-2-yl)carbamoyl]acetate(0.15mg/10µl/g body wt.) or diallyl sulfide(0.2mg/10µl/g body wt.) suspended in trioctanoin were administered to female CD-1 mice(6 weeks old) by gastric gavage method 24 hours and 1 hour prior to the intraperitoneal injection of B[a]P(0.3µmol) or VC(11.5µmol) in 0.2ml acetone or the same volume of acetone alone.
# One week after the initiation, animals were administered topically with 15nmol TPA(12-O-tetradecanoyl phorbol-13-acetate) in 0.1ml acetone twice a week to promote carcinogenesis.
# Tumors of at least 1 mm in diameter were counted and recorded at 16 weeks after initiation.
# [6] = system: Salmonella typhimurium TA100; experiment: Ames His+ reversion assay, mutagenesis induced by B[a]P (liquid preincubation, S9); format: cell-based; settings: 2.5µg B[a]P, control (0 µg) 248±26.0
# Protocol: as §4, §5
# (§7) Each of TA98 and TA100(1 to 2 x 10^9/plate) and 2.5µg of B[a]P dissolved in DMSO were added to the Aroclor 1254-induced rat hepatic postmitochondrial supernatant containing NADPH-generating system obtained above([…] containing about 2mg protein). Various amounts of isopropyl 2-(1,3-dithietan-2-ylidene)-2-[N-(4-methylthiazol-2-yl)carbamoyl]acetate were added thereto, and preincubated at 37°C for 20 minutes.
# (§8) The mixture was then diluted with soft agar, poured onto hard agar plates, and incubated for another 48 hours to allow the development of His+ revertant colonies. The data were corrected for the numbers of spontaneous revertant.
# [7] = system: Salmonella typhimurium TA98; experiment: as above; format: cell-based; settings: 2.5µg B[a]P, control (0 µg) 116±3.6
# Protocol: as §4, §5, §7, §8
# calf thymus DNA = experiment: Covalent binding test of [3H]-B[a]P to DNA; format: biochemical; settings: 37°C, 30 minutes, control (0 µM) 60±7.1
# Protocol: 2ml of the mixture of 50mM potassium phosphate buffer (pH 7.4) containing 0.25µg of [^3H]-B[a]P(specific activity: 12.35mCi/mmol), 2mg of calf thymus DNA, 25mg of EDTA, NADPH(0.65mM), and 4 mg of hepatic postmitochondrial supernatant was incubated with isopropyl 2-(1,3-dithietan-2-ylidene)-2-[N-(4-methylthiazol-2yl)carbamoyl]acetate of various concentrations at 37°C for 30 minutes.
# DNA was isolated by ethanol precipitation after the removal of proteins. DNA pellets thus obtained were successively rinsed with 75% ethanol containing 1% NaCl, 75% ethanol, absolute ethanol, acetone and ethyl ether, and then dried.
# Dried DNA samples were dissolved in 15 mM NaCl-1.5mM sodium citrate buffer(pH 7.0). The DNA concentration was determined by diphenylamine method using calf thymus DNA as a standard[see K. Burton and G.B. Peterson, Biochem. J., 75, pp.17-27, 1960].
# Aliqouts of DNA solutions were dissolved in Solvable(Du Pont/NEN Research Products, Boston, MA). After neutralization with glacial acetic acid, the levels of radio-labeled hydrocarbons covalently bound to DNA were determined by employing a liquid scintillation counter with the addition of Liquescent(National Diagnostics, Manville, NJ) as a cocktail.
# [8] = initiator B[a]P 0.3µmol, gavage pretreatment compound 0.15mg/10µl/g, trioctanoin control 6.7±5.1
# [9] = initiator B[a]P 0.3µmol, gavage pretreatment compound 0.15mg/10µl/g, trioctanoin control 92
# [10] = initiator VC 11.5µmol, gavage pretreatment compound 0.15mg/10µl/g, trioctanoin control 1.0±1.6
# [11] = initiator VC 11.5µmol, gavage pretreatment compound 0.15mg/10µl/g, trioctanoin control 58
# [12] = initiator acetone alone, gavage 24 hours and 1 hour before, compound 0.15mg/10µl/g
smiles,measurement,setting,value
"Cc1csc(NC(=O)C(C(=O)OC(C)C)=C2SCS2)n1 [Compound, Isopropyl 2-(1,3-dithietan-2-ylidene)-2-[N-(4-methylthiazol-2-yl)carbamoyl]acetate]",% inhibition,[1]; compound 2.5 µg,58%
same,No. of His+ revertant/plate,[1]; compound 2.5 µg,301
same,% inhibition,[1]; compound 10 µg,69%
same,No. of His+ revertant/plate,[1]; compound 10 µg,217
same,% inhibition,[1]; compound 25 µg,74%
same,No. of His+ revertant/plate,[1]; compound 25 µg,180
same,effect on mutagenesis induced by VC,[2],dose-dependently inhibit
same,No. of His+ revertant/plate,"[3]; VC epoxide 25 nmol, compound 2.5 µg, control (0 µg) 283",247
same,No. of His+ revertant/plate,"[3]; VC epoxide 25 nmol, compound 10 µg, control (0 µg) 283",239
same,No. of His+ revertant/plate,"[3]; VC epoxide 25 nmol, compound 25 µg, control (0 µg) 283",201
same,No. of His+ revertant/plate,"[3]; VC epoxide 50 nmol, compound 2.5 µg, control (0 µg) 598",541
same,No. of His+ revertant/plate,"[3]; VC epoxide 50 nmol, compound 10 µg, control (0 µg) 598",509
same,No. of His+ revertant/plate,"[3]; VC epoxide 50 nmol, compound 25 µg, control (0 µg) 598",471
same,Average No. of papillomas/mouse,"mouse skin tumor [4]; week 14, VC alone 0.9±1.1",0.2±0.5
same,% of tumor bearing mice,"mouse skin tumor [4]; week 14, VC alone 53",20%
same,Average No. of papillomas/mouse,"mouse skin tumor [4]; week 16, VC alone 1.4±1.7",0.4±0.7
same,% of tumor bearing mice,"mouse skin tumor [4]; week 16, VC alone 63",30%
same,Average No. of papillomas/mouse,"mouse skin tumor [4]; week 18, VC alone 1.8±1.9",0.6±0.9
same,% of tumor bearing mice,"mouse skin tumor [4]; week 18, VC alone 67",40%
same,Average No. of papillomas/mouse,"mouse skin tumor [4]; week 20, VC alone 2.4±2.1",0.8±1.0
same,% of tumor bearing mice,"mouse skin tumor [4]; week 20, VC alone 70",50%
same,Ave. No. of tumor/mouse,mouse skin tumor [5]; [8],2.8±3.4
same,% mice with papillomas,mouse skin tumor [5]; [9],72%
same,Ave. No. of tumor/mouse,mouse skin tumor [5]; [10],0.5±0.8
same,% mice with papillomas,mouse skin tumor [5]; [11],36%
same,% mice with papillomas,mouse skin tumor [5]; [12],0%
same,Ave. No. of tumor/mouse,mouse skin tumor [5]; [12],0
same,No. of His+ revertant/plate,[6]; compound 1 µg,205±23.1
same,No. of His+ revertant/plate,[6]; compound 5 µg,140±4.6
same,No. of His+ revertant/plate,[6]; compound 25 µg,93±8.7
same,No. of His+ revertant/plate,[7]; compound 1 µg,84±16.1
same,No. of His+ revertant/plate,[7]; compound 5 µg,48±3.2
same,No. of His+ revertant/plate,[7]; compound 25 µg,23±2.5
same,Covalent DNA binding,calf thymus DNA; compound 5 µM,22 ± 2.0 pmol
same,Covalent DNA binding,calf thymus DNA; compound 50 µM,16 ± 3.2 pmol
"C=CCSCC=C [Diallyl sulfide, reference compound]",Average No. of papillomas/mouse,"mouse skin tumor [4]; week 14, VC alone 0.9±1.1",0.2±0.5
same,% of tumor bearing mice,"mouse skin tumor [4]; week 14, VC alone 53",17%
same,Average No. of papillomas/mouse,"mouse skin tumor [4]; week 16, VC alone 1.4±1.7",0.5±0.9
same,% of tumor bearing mice,"mouse skin tumor [4]; week 16, VC alone 63",30%
same,Average No. of papillomas/mouse,"mouse skin tumor [4]; week 18, VC alone 1.8±1.9",0.7±1.1
same,% of tumor bearing mice,"mouse skin tumor [4]; week 18, VC alone 67",37%
same,Average No. of papillomas/mouse,"mouse skin tumor [4]; week 20, VC alone 2.4±2.1",0.9±1.1
same,% of tumor bearing mice,"mouse skin tumor [4]; week 20, VC alone 70",50%
same,Ave. No. of tumor/mouse,mouse skin tumor [5]; [8],4.0±5.6
same,% mice with papillomas,mouse skin tumor [5]; [9],64%
same,Ave. No. of tumor/mouse,mouse skin tumor [5]; [10],0.4±0.9
same,% mice with papillomas,mouse skin tumor [5]; [11],28%
same,% mice with papillomas,mouse skin tumor [5]; [12],0%
same,Ave. No. of tumor/mouse,mouse skin tumor [5]; [12],0
